Consider two compounds from US20040228868A1, “Apo-2L receptor agonist and CPT-11 synergism” (Genentech, Inc., priority 1999, published 2004).

The subject of this experiment is COLO205 colon carcinoma cells. Put plainly: COLO205 colon carcinoma xenograft tumor growth in athymic nude mice (Example 1). The experiment is classed as in vivo, human. Particulars: Apo-2L 30 mg/kg/day days 0-4 and 7-11, CPT-11 80 mg/kg/day days 0, 4, 8; for animals in which tumor growth resumed several days after the treatment period: of 9 mice per group. How it is done: The colon carcinoma cell line COLO205 (available from NCI) were grown and maintained according to the supplier's methods. Briefly, COLO205 cells were cultured in high glucose DMEM/F12 (50:50) media containing 10% fetal bovine serum and 2.0 mM-L-Glutamine. […] Cell-paste containing recombinant human soluble Apo-2L was extracted with a buffer containing 0.1M Tris/0.2M NaCl/50 mM EDTA, pH 8.0. The extract was precipitated by 40% ammonium sulfate. […] Purity was determined by sodium-dodecyl sulfate (SDS)-polyacrylamide gel electrophoresis and silver-nitrate or coomassie-blue staining, by amino acid sequence analysis, and by size-exclusion on high performance liquid chromatography (HPLC). CPT-11 (Camptosar®) was obtained from Pharmacia & Upjohn.
Athymic nude mice (Jackson Laboratories) were injected subcutaneously with 5 million COLO205 colon carcinoma cells and the tumors allowed to grow to about 120 mm^3. Tumor-bearing mice were randomized into 4 groups at 9 mice per group and treated with either vehicle (20 mM Tris, 8% Trehalose, 0.01 Tween-20, pH 7.5), Apo-2L (30 mg/kg/day on days 0-4 and 7-11), or CPT-11 (80 mg/kg/day on days 0, 4, and 8), or a combination of Apo-2L (30 mg/kg/day on days 0-4 and 7-11) plus CPT-11 (80 mg/kg/day on days 0, 4, and 8). Tumor volumes were determined at the indicated days over 34 days.
Background: Xenograft models place foreign cells or tissue in a host animal.

“Apo-2L: recombinant human soluble Apo-2L, extracellular portion amino acids 114-281, prepared in E. coli”: the “animals in which tumor growth resumed several days after the treatment period” value was 9 animals. The “effect on tumor growth (tumor volume, FIG. 1)” value (s.c. COLO205 tumors about 120 mm^3, 9 mice per group, followed 34 days) was “suppressed tumor growth during the treatment period”.

With `CCc1c2c(nc3ccc(OC(=O)N4CCC(N5CCCCC5)CC4)cc13)-c1cc3c(c(=O)n1C2)COC(=O)[C@]3(O)CC.Cl.O.O.O` [CPT-11, (4S)-4,11-diethyl-4-hydroxy-9-[(4-piperidino-piperidino)carbonyloxyl]-1H-pyrano[3′,4′:6,7]indolizino[1,2-b]quinoline-3,14(4H,12H)dione hydrochloride trihydrate], the “animals in which tumor growth resumed several days after the treatment period” value worked out at 9 animals.
